Structures can show the parent of a compound that is named as a salt.

The test concerns isolated guinea pig atria. The test is described as follows: Inotropic activity: increase in contractile force in isolated guinea pig atria. The conditions noted are these: Cavia porcellus; isolated left atrium, male guinea pig; 50% change of contractile force over the stabilized rate; Kreb's solution, 37° C., 3 Hz stimulation; read-out: Extrapolated ED50 value (concentration increasing contractile force by 50%). The method, then: The aryl and heteroaryl ethers of desacetylforskolin of the present invention are useful in the treatment of cardiac failure by virtue of their ability to elicit a positive inotropic effect as evidenced by an increase in contractile force in an isolated guinea pig atria assay which is performed as follows: Male guinea pigs weighing 200-300 grams are stunned with a blow to the back of the head. The heart is rapidly removed and placed in a petri dish containing Kreb's solution. The ventricle is separated from the atria, the atria are sectioned in the right and left atria, and double-O silk ligatures are tied to the apex of the left atrium. The atrium is fixed to a pair of platinum plate electrodes and suspended in a 20 ml tissue bath containing Kreb's solution aerated with 95% oxygen-5% carbon dioxide at 37° C. One end of the atrium is fixed to a hook in the electrode and the other end is connected to a Grass FT03 force displacement transducer. Resting tension and stabilization time are the same as described above. The atrium is stimulated at 3 Hz, 0.5 msec duration at supramaximal voltage (constant current) via a Grass S88 stimulator and constant current unit. Force of contraction is continuously displaced on a Gould recorder Test drug is prepared as in section A and is added to the tissue baths in the same fashion. Change in contractile force from baseline is determined for each concentration, and the change in contractile force (g) is plotted against accumulated drug concentration (ug/ml). The activity of the test drug, i.e., the increase in contractile force (g) from the stabilized force expressed as the percentage change at a given concentration is determined graphically, as in the ED50 -value, i.e., the extrapolated does (μg/ml) which increases the contractile force by 50% over the stabilized rate.
`C=C[C@@]1(C)CC(=O)[C@]2(O)[C@@]3(C)[C@@H](O)CCC(C)(C)[C@@H]3[C@H](O)[C@H](Oc3ncccn3)[C@@]2(C)O1` [B, 7-Desacetyl-7-(pyrimidin-2-yl)forskolin]: the EC (50% increase) was 0.01 µg/mL.

Regarding `C=C[C@@]1(C)CC(=O)[C@]2(O)[C@@]3(C)[C@@H](O)CCC(C)(C)[C@@H]3[C@H](O)[C@H](OC(C)=O)[C@@]2(C)O1` [Compound C, Forskolin], the EC (50% increase) is 0.073 µg/mL.

With `C=C[C@@]1(C)CC(=O)[C@]2(O)[C@@]3(C)[C@@H](O)CCC(C)(C)[C@@H]3[C@H](OC(=O)NCCN(C)C)[C@H](Oc3ccccn3)[C@@]2(C)O1` [A, 7-desacetyl-6-(2-dimethylaminoethylaminocarbonyl)-7-(pyridin-2-yl)forskolin hydrochloride hydrate], the EC (50% increase) is 0.009 µg/mL.
